Legend:
Experiment in all cases: relative viability (nuclei count vs DMSO), 5 days (fraction); higher = more cells survive
Vandetanib + Olaparib = compound: COc1cc2/c(=N/c3ccc(Br)cc3F)nc[nH]c2cc1OCC1CCN(C)CC1 [Vandetanib] + O=C(c1cc(Cc2n[nH]c(=O)c3ccccc23)ccc1F)N1CCN(C(=O)C2CC2)CC1 [Olaparib] (partner 8 µM)
In short: (§1)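 Relative viability is defined as nuclei in treated wells over nuclei in vehicle wells. Duplicate plates were run and medians reported. Lung cancer cell lines in 1536-well plates were dosed by pin tool one day after seeding, with one drug or with a fixed anchor-drug dose plus five library-drug doses (not always all listed) in √10 steps, and nuclei were counted after 5 days.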

[1] = compound: C1=CC=C2C(=C1)N=C(S2)C(C#N)C3=NC(=NC=C3)NCCC4=CN=CC=C4 + C[C@]1(O)C[C@@H](c2nc(-c3ccc4ccc(-c5ccccc5)nc4c3)c3c(N)nccn32)C1 [Linsitinib] (partner 1 µM)
In short: as §1

NVP-TAE684 + Palbociclib = compound: COc1cc(N2CCC(N3CCN(C)CC3)CC2)ccc1Nc1ncc(Cl)c(Nc2ccccc2S(=O)(=O)C(C)C)n1 [NVP-TAE684] + CC(=O)c1c(C)c2cnc(Nc3ccc(N4CCNCC4)cn3)nc2n(C2CCCC2)c1=O [Palbociclib] (partner 0.5 µM)
In short: as §1

Vandetanib + Foretinib = compound: COc1cc2/c(=N/c3ccc(Br)cc3F)nc[nH]c2cc1OCC1CCN(C)CC1 [Vandetanib] + COc1cc2c(Oc3ccc(NC(=O)C4(C(=O)Nc5ccc(F)cc5)CC4)cc3F)ccnc2cc1OCCCN1CCOCC1 [Foretinib] (partner 0.25 µM)
In short: as §1

Cell Line: UMC-11
- relative viability (Vandetanib + Olaparib; first compound 0.02 µM): 0.707
- relative viability (Vandetanib + Olaparib; first compound 0.06325 µM): 0.35
- relative viability (Vandetanib + Olaparib; first compound 0.2 µM): 0.473
- relative viability (Vandetanib + Olaparib; first compound 0.6325 µM): 0.315
- relative viability (Vandetanib + Olaparib; first compound 2 µM): 0.475
- relative viability ([1]; first compound 0.005 µM): 0.809
- relative viability ([1]; first compound 0.01581 µM): 0.968
- relative viability ([1]; first compound 0.05 µM): 0.967
- relative viability ([1]; first compound 0.1581 µM): 1.1
- relative viability ([1]; first compound 0.5 µM): 0.917
- relative viability (NVP-TAE684 + Palbociclib; first compound 0.2 µM): 0.344
- relative viability (NVP-TAE684 + Palbociclib; first compound 0.6325 µM): 0.326
- relative viability (NVP-TAE684 + Palbociclib; first compound 2 µM): 0.26
- relative viability (Vandetanib + Foretinib; first compound 0.02 µM): 1.05
- relative viability (Vandetanib + Foretinib; first compound 0.06325 µM): 1.01
- relative viability (Vandetanib + Foretinib; first compound 0.2 µM): 0.281
- relative viability (Vandetanib + Foretinib; first compound 0.6325 µM): 0.962
- relative viability (Vandetanib + Foretinib; first compound 2 µM): 0.97

— the supplement of paper PMC10307832
